Measured values taken from patent US9271993B2, “Treatment of bacterial infectious diseases” (priority 2010, dated 2016).

Key:
[1] = test system: E. coli; assay: MIC against gram-negative bacteria; assay type: cell-based
Source text: Agents Chemother. 2003, 47:1496-1502.

[2] = test system: Cochlear explants from newborn mice; assay: Cochleatoxicity in vitro, hair cell loss in cochlear explants; assay type: cell-based
Protocol: FIG. 1: Cochleatoxicity in vitro
(a) Dose-response relationship of drug-induced hair cell loss in cochlear explants. Hair cell loss was quantified along the entire length of the explant and plotted against drug concentration. %=% outer hair cells missing.
Cochlear explants from newborn mice were treated with 0.5 mM aminoglycoside compound for 24 h; subsequently hair cell damage was assessed by epifluorescence microscopy.

[3] = General toxicity in guinea pigs; assay type: in vivo; settings: systemic, once daily for 14 days, monitored additional 14 days
Source text: Guinea pigs received a systemic application of aminoglycosides once daily in the dosing indicated in Table 9 for 14 days and were then monitored for an additional 14 days.

[4] = test system: clinical methicillin resistant Staphylococcus aureus (MRSA) isolates; assay: MIC against clinical MRSA isolates, LB microdilution assay
Protocol: Activity was assessed by determination of minimal inhibitory concentrations (MIC), as described in Pfister et al., Antimicrob. […] Cultures from single colonies were grown in LB medium and used for MIC tests in a microtiter plate format. Starting cultures contained 200 μl of bacterial cells at an optical density of 0.025 at 600 nm, and the respective drug was added in twofold series of dilution.

[5] = test system: bacterial ribosomes; assay: Ribosomal drug susceptibility (MIC) of recombinant bacteria; parameters: MIC, bacterial ribosomes: unit not given beside the values; settings: for MIC, wild type bacteria: Table 10
[6] = test system: mitohybrid ribosomes; assay: as above; parameters: MIC, mitohybrid ribosomes: unit not given beside the values; settings: for MIC, bacteria with mitohybrid ribosome: Table 10
[7] = test system: cytohybrid ribosomes; assay: as above; parameters: MIC, cytohybrid ribosomes: unit not given beside the values; settings: for MIC, bacteria with cytohybrid ribosome: Table 10

Compound Gentamicin has an MIC ([1]; E. coli AG01, clin. isol. (Gm^S)) of 4 to 8 µg/mL, an MIC ([1]; E. coli AG02, clin. isol (Gm^S)) of 2 µg/mL and an MIC ([1]; E. coli AG03, clin. isol (Gm^R)) of 256 to 512 µg/mL. The MIC ([1]; E. coli AG06, BM13) was 0.5 µg/mL, the MIC ([1]; E. coli AG08, BM13/pIP055, resistance mechanism ANT(2″)) was 16 µg/mL and the MIC ([1]; E. coli AG09, AAC(6′)-1B, resistance mechanism AAC(6′)) was 8 to 16 µg/mL. For the same compound, the MIC ([1]; E. coli AG36, HB101/pAT197, resistance mechanism ANT(4′)) was 0.5 µg/mL, the MIC ([1]; E. coli AG37, HB101/pAG21-1, resistance mechanism APH(3′)) was 0.25 µg/mL and the Hair cell count ([2]; 0.5 mM aminoglycoside for 24 h, epifluorescence microscopy) was “almost all hair cells (inner and outer) missing”. For the same compound, the “inner and outer hair cells missing / lost” value ([2]; 0.5 mM, FIG. 1) was over 80%, the “observations (general toxicity)” value ([3]; 120 mg/kg base) was “normal weight gain” and the “observations (general toxicity)” value ([3]; 140 mg/kg base) was “significant weight loss”. The “observations (general toxicity)” value ([3]; 160 mg/kg base) was 2 out of 3 died, the MIC ([4]; MRSA AG038, strain 70-26S Gm^S) was 0.5 µg/mL and the MIC ([4]; MRSA AG040, strain 87-26S Gm^S) was 0.5 µg/mL. It also gave an MIC ([4]; MRSA AG041, strain 98-25S Gm^S) of 0.5 µg/mL, an MIC ([4]; MRSA AG042, strain 101-06R Gm^R) of 32 to 64 µg/mL and an MIC ([4]; MRSA AG043, strain 01-08R Gm^R) of 32 to 64 µg/mL. The MIC ([4]; MRSA AG044, strain 07-12R Gm^R) was 16 µg/mL, the MIC ([4]; MRSA AG045, strain 08-12R Gm^R) was 16 µg/mL and the MIC ([4]; MRSA AG046, strain 12-06R Gm^R) was “≧256 mg/l”. For the same compound, the MIC ([4]; MRSA AG047, strain 18-06R Gm^R) was “≧256 mg/l”, the MIC ([4]; MRSA AG048, strain 20-06R Gm^R) was “≧256 mg/l” and the MIC ([4]; MRSA AG049, strain 23-12R Gm^R) was 16 µg/mL. The MIC ([4]; MRSA AG050, strain 31-06R Gm^R) was 128 µg/mL, the MIC ([4]; MRSA AG051, strain 36-06R Gm^R) was 128 µg/mL and the MIC ([4]; MRSA AG052, strain 53-14I Gm^R) was 16 to 32 µg/mL. For the same compound, the MIC ([4]; MRSA AG053, strain 56-06R Gm^R) was 64 µg/mL, the “MIC, bacterial ribosomes” value ([5]; Table 7, 72 h incubation) was 1 and the “MIC, mitohybrid ribosomes” value ([6]; Table 7, 72 h incubation) was 128. The “MIC, cytohybrid ribosomes” value ([7]; Table 7, 72 h incubation) was 1024.
With `CC(=O)O.CC(=O)O.CC(=O)O.CC(=O)O.CN[C@@H]1[C@@H](O[C@H]2O[C@H](CO)[C@@H](N)[C@H](O)[C@H]2O)O[C@H]2C[C@@H](NC(=O)[C@@H](O)CCN)[C@@H](O[C@H]3[C@H](O)[C@@H](O)[C@H](N)C[C@@H]3N)O[C@@H]2[C@@H]1O` [ETH 100, 2′-N-[(2S)-4-Amino-2-hydroxybutyryl]apramycin tetraacetate] the “MIC, wild type bacteria” value [5] was 2.0 to 4.0 µg/mL, the “MIC, bacteria with mitohybrid ribosome” value [6] was over 256.0 µg/mL and the “MIC, bacteria with cytohybrid ribosome” value [7] was over 256.0 µg/mL.
For `CC(=O)O.CC(=O)O.CC(=O)O.CC(=O)O.CNC1C(OC2OC(CO)C(N)C(O)C2O)OC2CC(NC(=O)C(O)CCN3C(=O)c4ccccc4C3=O)C(OC3C(N)CC(N)C(O)C3O)OC2C1O` (stereo not shown) [ETH 103], the “MIC, wild type bacteria” value [5] was 8.0 µg/mL, the “MIC, bacteria with mitohybrid ribosome” value [6] was over 256.0 µg/mL and the “MIC, bacteria with cytohybrid ribosome” value [7] was over 256.0 µg/mL.
With `CC(=O)O.CC(=O)O.CC(=O)O.CC(=O)O.CN1C(=O)OC2C3OC(OC4C(N)CC(N)C(O)C4O)C(N)CC3OC(OC3OC(CO)C(NC(=O)C(O)CCN)C(O)C3O)C21` [ETH 99, 7′-N,6′-O-Carbonyl-4″-N-[(2S)-4-amino-2-hydroxybutyryl]apramycin tetraacetate] the “MIC, wild type bacteria” value [5] was 2.0 to 4.0 µg/mL, the “MIC, bacteria with mitohybrid ribosome” value [6] was over 256.0 µg/mL and the “MIC, bacteria with cytohybrid ribosome” value [7] was over 256.0 µg/mL.
